Data reported in patent publication US20240270762A1, “PENICILLIN-BINDING PROTEIN INHIBITORS” (priority 2021, published 2024).
In brackets after ≈: the same amount, converted by molar mass. Where two headings read alike, the source gives them in different places.

Tests used:
[1] = test system: N. gonorrhoeae MS11; assay: Liquid broth MIC in Fastidious broth; settings: Neisseria gonorrhoeae
[2] = test system: B. thailandensis ATCC 700388; assay: microbe, parasite or virus in culture; format: cell-based; settings: Burkholderia thailandensis, ATCC700388, read-out: Minimum inhibitory concentration (MIC), B. thailandensis ATCC 700388
[3] = test system: B. pseudomallei Bp82; assay: microbe, parasite or virus in culture; format: cell-based; settings: Burkholderia pseudomallei, BP82, read-out: Minimum inhibitory concentration, B. pseudomallei Bp82
[4] = test system: B. humptydooensis ATCC BAA-2767; assay: microbe, parasite or virus in culture; format: cell-based; settings: Burkholderia humptydooensis, ATCCBAA2767, read-out: Minimum inhibitory concentration (MIC), B. humptydooensis ATCC BAA-2767
[5] = test system: A. baumannii CDC-0083; assay: microbe, parasite or virus in culture; format: cell-based; settings: Acinetobacter baumannii, CDC0083, read-out: MIC, A. baumannii CDC-0083
[6] = test system: A. baumannii CDC-0045; assay: microbe, parasite or virus in culture; format: cell-based; settings: Acinetobacter baumannii, CDC0045, read-out: MIC, A. baumannii CDC-0045
[7] = test system: N. gonorrhoeae CDC-0197; assay: Liquid broth MIC in Fastidious broth; settings: Neisseria gonorrhoeae
[8] = test system: A. baumannii ATCC 19606; assay: microbe, parasite or virus in culture; format: cell-based; settings: Acinetobacter baumannii, ATCC19606, read-out: MIC, A. baumannii ATCC 19606
[9] = test system: P. aeruginosa (ΔmexAB-oprM); assay: Broth microdilution MIC in iron-depleted CAMHB (IDM); format: cell-based; settings: Pseudomonas aeruginosa; iron-depleted CAMHB (IDM); […]; read-out: Minimum inhibitory concentration, P. aeruginosa ΔmexAB-oprM
[10] = test system: P. aeruginosa CDC-0054; assay: microbe, parasite or virus in culture; format: cell-based; settings: Pseudomonas aeruginosa, CDC0054, read-out: Minimum inhibitory concentration, P. aeruginosa CDC-0054
[11] = test system: P. aeruginosa ATCC 35151; assay: microbe, parasite or virus in culture; format: cell-based; settings: Pseudomonas aeruginosa, ATCC35151, read-out: Minimum inhibitory concentration, P. aeruginosa ATCC 35151
[12] = test system: P. aeruginosa ATCC 27853; assay: microbe, parasite or virus in culture; format: cell-based; settings: Pseudomonas aeruginosa, ATCC27853, read-out: Minimum inhibitory concentration, P. aeruginosa ATCC 27853
[13] = test system: P. aeruginosa CDC-0110; assay: microbe, parasite or virus in culture; format: cell-based; settings: Pseudomonas aeruginosa, CDC0110, read-out: Minimum inhibitory concentration, P. aeruginosa CDC-0110
[14] = MS11, read-out: Minimum Inhibitory Concentration, MS11
[15] = CDC0197, read-out: Minimum Inhibitory Concentration, CDC-0197
[16] = MS11, read-out: Minimum Inhibitory Concentration (MIC), N. gonorrhoeae MS11
[17] = CDC0197, read-out: Minimum Inhibitory Concentration (MIC), N. gonorrhoeae CDC-0197

Row | SMILES | MIC [1, 14] | MIC [2] | MIC [3] | MIC [4] | MIC [5] | MIC [6] | MIC [7, 15] | MIC [8] | MIC [9] | MIC [10] | MIC [11] | MIC [12] | MIC [13] | MIC [1, 16] | MIC [7, 17]
1 | O=C(NCCCN1CCN(C(=O)NC(C(=O)N[C@H]2Cc3ccc(F)c(C(=O)O)c3OB2O)c2cc(F)c(O)c(O)c2Cl)C1=O)c1ccncc1 (stereo partly drawn) [Example 256, (3R)-3-(2-(2-chloro-5-fluoro-3,4-dihydroxyphenyl)-2-(3-(3-(isonicotinamido)propyl)-2-oxoimidazolidine-1-carboxamido)acetamido)-7-fluoro-2-hydroxy-3,4-dihydro-2H-benzo[e][1,2]oxaborinine-8-carboxylic acid] | > 64 µg/mL | < 1 µg/mL | < 1 µg/mL | < 1 µg/mL | < 1 µg/mL | < 1 µg/mL | > 64 µg/mL | < 1 µg/mL | < 1 µg/mL | 2 to 4 µg/mL (≈ 2.79 to 5.58 µM) | < 1 µg/mL | 2 to 4 µg/mL (≈ 2.79 to 5.58 µM) | 2 to 4 µg/mL (≈ 2.79 to 5.58 µM) | – | –
2 | O=C(O)c1c(F)ccc2c1OB(O)[C@@H](NC(=O)C(NC(=O)N1CCN(CCCNC(=O)[C@@H]3CCCN3)C(=O)C1=O)c1cc(F)c(O)c(O)c1Cl)C2 (stereo partly drawn) [Example 212, (3R)-3-(2-(2-chloro-5-fluoro-3,4-dihydroxyphenyl)-2-(2,3-dioxo-4-(3-((S)-pyrrolidine-2-carboxamido)propyl)piperazine-1-carboxamido)acetamido)-7-fluoro-2-hydroxy-3,4-dihydro-2H-benzo[e][1,2]oxaborinine-8-carboxylic acid] | – | 2 to 4 µg/mL (≈ 2.71 to 5.43 µM) | < 1 µg/mL | < 1 µg/mL | 32 to 64 µg/mL (≈ 43.4 to 86.9 µM) | 2 to 4 µg/mL (≈ 2.71 to 5.43 µM) | – | < 1 µg/mL | < 1 µg/mL | 8 to 16 µg/mL (≈ 10.9 to 21.7 µM) | < 1 µg/mL | 2 to 4 µg/mL (≈ 2.71 to 5.43 µM) | < 1 µg/mL | 16 to 32 µg/mL (≈ 21.7 to 43.4 µM) | 16 to 32 µg/mL (≈ 21.7 to 43.4 µM)
3 | O=C(NCCN1CCN(C(=O)NC(C(=O)N[C@H]2Cc3ccc(F)c(C(=O)O)c3OB2O)c2cc(F)c(O)c(O)c2Cl)C1=O)Nc1cccnc1 (stereo partly drawn) [Example 251, (3R)-3-(2-(2-chloro-5-fluoro-3,4-dihydroxyphenyl)-2-(2-oxo-3-(2-(3-(pyridin-3-yl)ureido)ethyl)imidazolidine-1-carboxamido)acetamido)-7-fluoro-2-hydroxy-3,4-dihydro-2H-benzo[e][1,2]oxaborinine-8-carboxylic acid] | 16 to 32 µg/mL (≈ 22.3 to 44.6 µM) | < 1 µg/mL | < 1 µg/mL | < 1 µg/mL | 2 to 4 µg/mL (≈ 2.79 to 5.57 µM) | < 1 µg/mL | > 64 µg/mL | < 1 µg/mL | < 1 µg/mL | 8 to 16 µg/mL (≈ 11.1 to 22.3 µM) | < 1 µg/mL | < 1 µg/mL | < 1 µg/mL | – | –
4 | O=C(O)c1c(F)ccc2c1OB(O)[C@@H](NC(=O)C(NC(=O)N1CCN(S(=O)(=O)CCNC(=O)[C@@H]3CCCN3)C1=O)c1cc(F)c(O)c(O)c1Cl)C2 (stereo partly drawn) [Example 265, (3R)-3-(2-(2-chloro-5-fluoro-3,4-dihydroxyphenyl)-2-(2-oxo-3-((2-((S)-pyrrolidine-2-carboxamido)ethyl)sulfonyl)imidazolidine-1-carboxamido)acetamido)-7-fluoro-2-hydroxy-3,4-dihydro-2H-benzo[e][1,2]oxaborinine-8-carboxylic acid] | 16 to 32 µg/mL (≈ 21.1 to 42.2 µM) | < 1 µg/mL | < 1 µg/mL | < 1 µg/mL | < 1 µg/mL | < 1 µg/mL | 16 to 32 µg/mL (≈ 21.1 to 42.2 µM) | < 1 µg/mL | < 1 µg/mL | 2 to 4 µg/mL (≈ 2.64 to 5.27 µM) | < 1 µg/mL | 2 to 4 µg/mL (≈ 2.64 to 5.27 µM) | < 1 µg/mL | – | –
5 | O=C(NCCN1CCN(C(=O)NC(C(=O)N[C@H]2Cc3ccc(F)c(C(=O)O)c3OB2O)c2cc(F)c(O)c(O)c2Cl)C(=O)C1=O)c1cccnc1 (stereo partly drawn) [Example 217, (3R)-3-(2-(2-chloro-5-fluoro-3,4-dihydroxyphenyl)-2-(4-(2-(nicotinamido)ethyl)-2,3-dioxopiperazine-1-carboxamido)acetamido)-7-fluoro-2-hydroxy-3,4-dihydro-2H-benzo[e][1,2]oxaborinine-8-carboxylic acid] | – | 2 to 4 µg/mL (≈ 2.74 to 5.47 µM) | 8 to 16 µg/mL (≈ 10.9 to 21.9 µM) | < 1 µg/mL | > 128 µg/mL | < 1 µg/mL | – | 2 to 4 µg/mL (≈ 2.74 to 5.47 µM) | < 1 µg/mL | < 1 µg/mL | < 1 µg/mL | 2 to 4 µg/mL (≈ 2.74 to 5.47 µM) | < 1 µg/mL | 16 to 32 µg/mL (≈ 21.9 to 43.8 µM) | 16 to 32 µg/mL (≈ 21.9 to 43.8 µM)
6 | O=C(NCCN1CCN(C(=O)NC(C(=O)N[C@H]2Cc3ccc(F)c(C(=O)O)c3OB2O)c2cc(F)c(O)c(O)c2Cl)C1=O)c1ccncc1 (stereo partly drawn) [Example 245, (3R)-3-(2-(2-chloro-5-fluoro-3,4-dihydroxyphenyl)-2-(3-(2-(isonicotinamido)ethyl)-2-oxoimidazolidine-1-carboxamido)acetamido)-7-fluoro-2-hydroxy-3,4-dihydro-2H-benzo[e][1,2]oxaborinine-8-carboxylic acid] | – | 2 to 4 µg/mL (≈ 2.85 to 5.69 µM) | < 1 µg/mL | < 1 µg/mL | < 1 µg/mL | < 1 µg/mL | – | < 1 µg/mL | < 1 µg/mL | 2 to 4 µg/mL (≈ 2.85 to 5.69 µM) | < 1 µg/mL | 2 to 4 µg/mL (≈ 2.85 to 5.69 µM) | < 1 µg/mL | 16 to 32 µg/mL (≈ 22.8 to 45.5 µM) | > 64 µg/mL
7 | O=C(NCCCN1CCN(C(=O)NC(C(=O)N[C@H]2Cc3ccc(F)c(C(=O)O)c3OB2O)c2cc(F)c(O)c(O)c2Cl)C(=O)C1=O)c1nccs1 (stereo partly drawn) [Example 211, (3R)-3-(2-(2-chloro-5-fluoro-3,4-dihydroxyphenyl)-2-(2,3-dioxo-4-(3-(thiazole-2-carboxamido)propyl)piperazine-1-carboxamido)acetamido)-7-fluoro-2-hydroxy-3,4-dihydro-2H-benzo[e][1,2]oxaborinine-8-carboxylic acid] | – | 2 to 4 µg/mL (≈ 2.66 to 5.33 µM) | < 1 µg/mL | < 1 µg/mL | < 1 µg/mL | < 1 µg/mL | – | < 1 µg/mL | < 1 µg/mL | 2 to 4 µg/mL (≈ 2.66 to 5.33 µM) | < 1 µg/mL | 2 to 4 µg/mL (≈ 2.66 to 5.33 µM) | < 1 µg/mL | 16 to 32 µg/mL (≈ 21.3 to 42.6 µM) | 16 to 32 µg/mL (≈ 21.3 to 42.6 µM)
8 | O=C(NCCS(=O)(=O)N1CCN(C(=O)N[C@@H](C(=O)N[C@H]2Cc3ccc(F)c(C(=O)O)c3OB2O)c2cc(F)c(O)c(O)c2Cl)C1=O)c1nccs1 [Example 264, (R)-3-((R)-2-(2-chloro-5-fluoro-3,4-dihydroxyphenyl)-2-(2-oxo-3-((2-(thiazole-2-carboxamido)ethyl)sulfonyl)imidazolidine-1-carboxamido)acetamido)-7-fluoro-2-hydroxy-3,4-dihydro-2H-benzo[e][1,2]oxaborinine-8-carboxylic acid] | 16 to 32 µg/mL (≈ 20.7 to 41.4 µM) | < 1 µg/mL | < 1 µg/mL | 2 to 4 µg/mL (≈ 2.59 to 5.18 µM) | < 1 µg/mL | < 1 µg/mL | 16 to 32 µg/mL (≈ 20.7 to 41.4 µM) | < 1 µg/mL | < 1 µg/mL | < 1 µg/mL | < 1 µg/mL | < 1 µg/mL | < 1 µg/mL | – | –
9 | O=C(NCCN1CCN(C(=O)N[C@@H](C(=O)N[C@H]2Cc3ccc(F)c(C(=O)O)c3OB2O)c2cc(F)c(O)c(O)c2Cl)C(=O)C1=O)Nc1ccncc1 [Example 221, (R)-3-((R)-2-(2-chloro-5-fluoro-3,4-dihydroxyphenyl)-2-(2,3-dioxo-4-(2-(3-(pyridin-4-yl)ureido)ethyl)piperazine-1-carboxamido)acetamido)-7-fluoro-2-hydroxy-3,4-dihydro-2H-benzo[e][1,2]oxaborinine-8-carboxylic acid] | – | 2 to 4 µg/mL (≈ 2.68 to 5.36 µM) | < 1 µg/mL | < 1 µg/mL | 32 to 64 µg/mL (≈ 42.9 to 85.8 µM) | < 1 µg/mL | – | < 1 µg/mL | < 1 µg/mL | 2 to 4 µg/mL (≈ 2.68 to 5.36 µM) | < 1 µg/mL | < 1 µg/mL | < 1 µg/mL | 16 to 32 µg/mL (≈ 21.5 to 42.9 µM) | > 64 µg/mL
10 | O=C(O)c1c(F)ccc2c1OB(O)[C@@H](NC(=O)[C@H](NC(=O)N1CCN(CCNC(=O)[C@@H]3CCCN3)C(=O)C1=O)c1cc(F)c(O)c(O)c1Cl)C2 [Example 229, (R)-3-((R)-2-(2-chloro-5-fluoro-3,4-dihydroxyphenyl)-2-(2,3-dioxo-4-(2-((S)-pyrrolidine-2-carboxamido)ethyl)piperazine-1-carboxamido)acetamido)-7-fluoro-2-hydroxy-3,4-dihydro-2H-benzo[e][1,2]oxaborinine-8-carboxylic acid] | – | < 1 µg/mL | < 1 µg/mL | – | < 1 µg/mL | < 1 µg/mL | – | < 1 µg/mL | < 1 µg/mL | 2 to 4 µg/mL (≈ 2.77 to 5.53 µM) | < 1 µg/mL | < 1 µg/mL | 2 to 4 µg/mL (≈ 2.77 to 5.53 µM) | 16 to 32 µg/mL (≈ 22.1 to 44.3 µM) | 16 to 32 µg/mL (≈ 22.1 to 44.3 µM)
